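Following 48 hours of exposure in 96-well plates, responses at five concentrations were used to interpolate endpoints linearly. At the GI50, growth is halved. TGI is the concentration that stops growth completely.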
Legend:
Assay in all cases: inhibition of tumour cell growth, NCI panel, 48 h
NCI-H23 lung = system: NCI-H23 lung
SF-295 CNS = system: SF-295 CNS
EKVX NSCLC = system: EKVX NSCLC
UACC-62 melanoma = system: UACC-62 melanoma
RXF 393 renal = system: RXF 393 renal
UACC-257 melanoma = system: UACC-257 melanoma
COLO 205 colon = system: COLO 205 colon
SF-539 CNS = system: SF-539 CNS
SK-OV-3 ovarian = system: SK-OV-3 ovarian
NCI/ADR-RES ovarian = system: NCI/ADR-RES ovarian
U251 CNS = system: U251 CNS
ACHN renal = system: ACHN renal
OVCAR-4 ovarian = system: OVCAR-4 ovarian
M14 melanoma = system: M14 melanoma
HL-60(TB) leukemia = system: HL-60(TB) leukemia
TK-10 renal = system: TK-10 renal
T-47D breast = system: T-47D breast
DU-145 prostate = system: DU-145 prostate
HCC-2998 colon = system: HCC-2998 colon
SN12C renal = system: SN12C renal
OVCAR-8 ovarian = system: OVCAR-8 ovarian
HOP-62 NSCLC = system: HOP-62 NSCLC
PC-3 prostate = system: PC-3 prostate
CCRF-CEM leukemia = system: CCRF-CEM leukemia
HCT-15 colon = system: HCT-15 colon
RPMI-8226 leukemia = system: RPMI-8226 leukemia
IGROV1 ovarian = system: IGROV1 ovarian
OVCAR-5 ovarian = system: OVCAR-5 ovarian
MALME-3M melanoma = system: MALME-3M melanoma
SW-620 colon = system: SW-620 colon
MOLT-4 leukemia = system: MOLT-4 leukemia
KM12 colon = system: KM12 colon
MCF7 breast = system: MCF7 breast
NCI-H226 lung = system: NCI-H226 lung
SK-MEL-28 melanoma = system: SK-MEL-28 melanoma
K-562 leukemia = system: K-562 leukemia
NCI-H522 lung = system: NCI-H522 lung
SNB-75 CNS = system: SNB-75 CNS
SF-268 CNS = system: SF-268 CNS
HOP-92 NSCLC = system: HOP-92 NSCLC
OVCAR-3 ovarian = system: OVCAR-3 ovarian
UO-31 renal = system: UO-31 renal
786-0 renal = system: 786-0 renal
LOX IMVI melanoma = system: LOX IMVI melanoma
SK-MEL-2 melanoma = system: SK-MEL-2 melanoma
CAKI-1 renal = system: CAKI-1 renal
HS 578T breast = system: HS 578T breast
BT-549 breast = system: BT-549 breast
A549 NSCLC = system: A549 NSCLC
HT29 colon = system: HT29 colon
SNB-19 CNS = system: SNB-19 CNS
NCI-H460 lung = system: NCI-H460 lung
SK-MEL-5 melanoma = system: SK-MEL-5 melanoma
MDA-MB-435 = system: MDA-MB-435
A498 renal = system: A498 renal
HCT-116 colon = system: HCT-116 colon
MDA-MB-231 breast = system: MDA-MB-231 breast

**Q.** With O=C1CC(c2cccc(O)c2)C2(C(=O)NC(=S)NC2=O)C(c2cccc(O)c2)C1 (centres undefined) as the compound, how does the GI50 (NCI-H23 lung) read?
**A.** > 100 µM

**Q.** What about the TGI (NCI-H23 lung) of the same compound?
**A.** > 100 µM

**Q.** What about the GI50 (SF-295 CNS) of the same compound?
**A.** > 100 µM

**Q.** What about the TGI (SF-295 CNS) of the same compound?
**A.** > 100 µM

**Q.** And the GI50 (EKVX NSCLC)?
**A.** > 100 µM

**Q.** And the TGI (EKVX NSCLC)?
**A.** > 100 µM

**Q.** What about the GI50 (UACC-62 melanoma) of the same compound?
**A.** > 100 µM

**Q.** What about the TGI (UACC-62 melanoma) of the same compound?
**A.** > 100 µM

**Q.** And the GI50 (RXF 393 renal)?
**A.** > 100 µM

**Q.** What about the TGI (RXF 393 renal) of the same compound?
**A.** > 100 µM

**Q.** And the GI50 (UACC-257 melanoma)?
**A.** > 100 µM

**Q.** What about the TGI (UACC-257 melanoma) of the same compound?
**A.** > 100 µM

**Q.** What about the GI50 (COLO 205 colon) of the same compound?
**A.** > 100 µM

**Q.** What about the TGI (COLO 205 colon) of the same compound?
**A.** > 100 µM

**Q.** What about the GI50 (SF-539 CNS) of the same compound?
**A.** > 100 µM

**Q.** And the TGI (SF-539 CNS)?
**A.** > 100 µM

**Q.** And the GI50 (SK-OV-3 ovarian)?
**A.** > 100 µM

**Q.** And the TGI (SK-OV-3 ovarian)?
**A.** > 100 µM

**Q.** What about the GI50 (NCI/ADR-RES ovarian) of the same compound?
**A.** > 100 µM

**Q.** And the TGI (NCI/ADR-RES ovarian)?
**A.** > 100 µM

**Q.** And the GI50 (U251 CNS)?
**A.** > 100 µM

**Q.** And the TGI (U251 CNS)?
**A.** > 100 µM

**Q.** What about the GI50 (ACHN renal) of the same compound?
**A.** > 100 µM

**Q.** And the TGI (ACHN renal)?
**A.** > 100 µM

**Q.** What about the GI50 (OVCAR-4 ovarian) of the same compound?
**A.** > 100 µM

**Q.** And the TGI (OVCAR-4 ovarian)?
**A.** > 100 µM

**Q.** And the GI50 (M14 melanoma)?
**A.** > 100 µM

**Q.** What about the TGI (M14 melanoma) of the same compound?
**A.** > 100 µM

**Q.** And the GI50 (HL-60(TB) leukemia)?
**A.** > 100 µM

**Q.** What about the TGI (HL-60(TB) leukemia) of the same compound?
**A.** > 100 µM

**Q.** What about the GI50 (TK-10 renal) of the same compound?
**A.** > 100 µM

**Q.** What about the TGI (TK-10 renal) of the same compound?
**A.** > 100 µM

**Q.** What about the GI50 (T-47D breast) of the same compound?
**A.** > 100 µM

**Q.** And the TGI (T-47D breast)?
**A.** > 100 µM

**Q.** And the GI50 (DU-145 prostate)?
**A.** > 100 µM

**Q.** And the TGI (DU-145 prostate)?
**A.** > 100 µM

**Q.** What about the GI50 (HCC-2998 colon) of the same compound?
**A.** > 100 µM

**Q.** And the TGI (HCC-2998 colon)?
**A.** > 100 µM

**Q.** And the GI50 (SN12C renal)?
**A.** > 100 µM

**Q.** And the TGI (SN12C renal)?
**A.** > 100 µM

**Q.** And the GI50 (OVCAR-8 ovarian)?
**A.** > 100 µM

**Q.** What about the TGI (OVCAR-8 ovarian) of the same compound?
**A.** > 100 µM

**Q.** What about the GI50 (HOP-62 NSCLC) of the same compound?
**A.** > 100 µM

**Q.** What about the TGI (HOP-62 NSCLC) of the same compound?
**A.** > 100 µM

**Q.** And the GI50 (PC-3 prostate)?
**A.** > 100 µM

**Q.** What about the TGI (PC-3 prostate) of the same compound?
**A.** > 100 µM

**Q.** What about the GI50 (CCRF-CEM leukemia) of the same compound?
**A.** > 100 µM

**Q.** And the TGI (CCRF-CEM leukemia)?
**A.** > 100 µM

**Q.** And the GI50 (HCT-15 colon)?
**A.** > 100 µM

**Q.** What about the TGI (HCT-15 colon) of the same compound?
**A.** > 100 µM

**Q.** And the GI50 (RPMI-8226 leukemia)?
**A.** > 100 µM

**Q.** And the TGI (RPMI-8226 leukemia)?
**A.** > 100 µM

**Q.** And the GI50 (IGROV1 ovarian)?
**A.** > 100 µM

**Q.** And the TGI (IGROV1 ovarian)?
**A.** > 100 µM

**Q.** And the GI50 (OVCAR-5 ovarian)?
**A.** > 100 µM

**Q.** And the TGI (OVCAR-5 ovarian)?
**A.** > 100 µM

**Q.** What about the GI50 (MALME-3M melanoma) of the same compound?
**A.** > 100 µM

**Q.** And the TGI (MALME-3M melanoma)?
**A.** > 100 µM

**Q.** And the GI50 (SW-620 colon)?
**A.** > 100 µM

**Q.** What about the TGI (SW-620 colon) of the same compound?
**A.** > 100 µM

**Q.** What about the GI50 (MOLT-4 leukemia) of the same compound?
**A.** > 100 µM

**Q.** What about the TGI (MOLT-4 leukemia) of the same compound?
**A.** > 100 µM

**Q.** What about the GI50 (KM12 colon) of the same compound?
**A.** > 100 µM

**Q.** What about the TGI (KM12 colon) of the same compound?
**A.** > 100 µM

**Q.** What about the GI50 (MCF7 breast) of the same compound?
**A.** > 100 µM

**Q.** And the TGI (MCF7 breast)?
**A.** > 100 µM

**Q.** What about the GI50 (NCI-H226 lung) of the same compound?
**A.** > 100 µM

**Q.** What about the TGI (NCI-H226 lung) of the same compound?
**A.** > 100 µM

**Q.** And the GI50 (SK-MEL-28 melanoma)?
**A.** > 100 µM

**Q.** What about the TGI (SK-MEL-28 melanoma) of the same compound?
**A.** > 100 µM

**Q.** What about the GI50 (K-562 leukemia) of the same compound?
**A.** > 100 µM

**Q.** What about the TGI (K-562 leukemia) of the same compound?
**A.** > 100 µM

**Q.** And the GI50 (NCI-H522 lung)?
**A.** > 100 µM

**Q.** What about the TGI (NCI-H522 lung) of the same compound?
**A.** > 100 µM

**Q.** And the GI50 (SNB-75 CNS)?
**A.** > 100 µM

**Q.** What about the TGI (SNB-75 CNS) of the same compound?
**A.** > 100 µM

**Q.** What about the GI50 (SF-268 CNS) of the same compound?
**A.** > 100 µM

**Q.** And the TGI (SF-268 CNS)?
**A.** > 100 µM

**Q.** And the GI50 (HOP-92 NSCLC)?
**A.** > 100 µM

**Q.** What about the TGI (HOP-92 NSCLC) of the same compound?
**A.** > 100 µM

**Q.** What about the GI50 (OVCAR-3 ovarian) of the same compound?
**A.** > 100 µM

**Q.** What about the TGI (OVCAR-3 ovarian) of the same compound?
**A.** > 100 µM

**Q.** And the GI50 (UO-31 renal)?
**A.** > 100 µM

**Q.** What about the TGI (UO-31 renal) of the same compound?
**A.** > 100 µM

**Q.** And the GI50 (786-0 renal)?
**A.** > 100 µM

**Q.** And the TGI (786-0 renal)?
**A.** > 100 µM

**Q.** And the GI50 (LOX IMVI melanoma)?
**A.** > 100 µM

**Q.** And the TGI (LOX IMVI melanoma)?
**A.** > 100 µM

**Q.** And the GI50 (SK-MEL-2 melanoma)?
**A.** > 100 µM

**Q.** What about the TGI (SK-MEL-2 melanoma) of the same compound?
**A.** > 100 µM

**Q.** What about the GI50 (CAKI-1 renal) of the same compound?
**A.** > 100 µM

**Q.** And the TGI (CAKI-1 renal)?
**A.** > 100 µM

**Q.** What about the GI50 (HS 578T breast) of the same compound?
**A.** > 100 µM

**Q.** And the TGI (HS 578T breast)?
**A.** > 100 µM

**Q.** And the GI50 (BT-549 breast)?
**A.** > 100 µM

**Q.** And the TGI (BT-549 breast)?
**A.** > 100 µM

**Q.** And the GI50 (A549 NSCLC)?
**A.** > 100 µM

**Q.** And the TGI (A549 NSCLC)?
**A.** > 100 µM

**Q.** What about the GI50 (HT29 colon) of the same compound?
**A.** > 100 µM

**Q.** And the TGI (HT29 colon)?
**A.** > 100 µM

**Q.** And the GI50 (SNB-19 CNS)?
**A.** > 100 µM

**Q.** And the TGI (SNB-19 CNS)?
**A.** > 100 µM

**Q.** And the GI50 (NCI-H460 lung)?
**A.** > 100 µM

**Q.** And the TGI (NCI-H460 lung)?
**A.** > 100 µM

**Q.** And the GI50 (SK-MEL-5 melanoma)?
**A.** > 100 µM

**Q.** And the TGI (SK-MEL-5 melanoma)?
**A.** > 100 µM

**Q.** And the GI50 (MDA-MB-435)?
**A.** > 100 µM

**Q.** And the TGI (MDA-MB-435)?
**A.** > 100 µM

**Q.** What about the GI50 (A498 renal) of the same compound?
**A.** > 100 µM

**Q.** And the TGI (A498 renal)?
**A.** > 100 µM

**Q.** And the GI50 (HCT-116 colon)?
**A.** > 100 µM

**Q.** And the TGI (HCT-116 colon)?
**A.** > 100 µM

**Q.** What about the GI50 (MDA-MB-231 breast) of the same compound?
**A.** > 100 µM

**Q.** And the TGI (MDA-MB-231 breast)?
**A.** > 100 µM
